According to patent publication US20220079915A1, “IMMUNOSUPPRESSIVE PHARMACEUTICAL COMPOSITION AND APPLICATION THEREOF” (Shanghai Archeus Biotech Co., Ltd., priority 2018, published 2022):

Columns and labels:
[1] = tested on: IL-17A; assay: IL-17A secretion of mouse spleen Naïve CD4+ T cells induced to differentiate to Th17 cells by cytokines, ELISA; assay type: cell-based
Method: 1) Pre-coated the 96-well plate with 2 μg/mL anti-mouse CD3e and incubated overnight at 4 degrees Celsius: 2) Separated fresh spleens from adult C57BL/6 female mice (8-12 weeks old), ground and filtered through a […] nylon cell strainer to obtain a single cell suspension in pre-cooled DPBS; 3) Washed the spleen cells again with DPBS, and resuspended in RoboSep™ buffer at a density of 1×10^8/mL; 4) Separated primary CD4+ T cells with mouse primary CD4+ T cell isolation kit as required by the kit; 5) Resuspended the isolated CD4+ T cells in complete medium (RPMI 1640 medium+10% inactivated FBS+1% double antibiotics) at a density of 1×10^6/mL; 6) Washed the 96-well plate pre-coated with anti-mouse CD3e twice with DPBS, added 50 μL of cytokine cocktail, the composition and final concentration of which are shown in Table 6 below, and then added 50 μL of compound solution (the final concentration of DMSO was 0.1%). Added 100 μL of cell suspension to each well to allow the final cell number per well to be 1×10^5/100 μL; [table] 7) Cultured the cells for 7 days under the above conditions. The culture conditions were 37 degrees Celsius, 5% CO2 concentration; 8) After 7 days, added 1× stimulation cocktail (eBioscience 500X) to the culture medium for 4 hours, and then collected cell culture supernatant for detection with IL-17A enzyme-linked immunoassay kit; 9) Completed the detection of supernatant IL-17A concentration with mouse IL-17 DuoSet ELISA kit; 10) Read the OD450 nm absorbance value with a microplate reader, and generated the standard curve by using the 4-parameter logistic fitting (4-PL) method. 1) Diluted the capture antibody (provided in the kit) to a working concentration in PBS without carrier protein, that is, a 96-well plate can be coated with 100 microliters per well. Sealed and incubated the plate overnight at room temperature; 2) Aspirated the coating buffer of the well plate, and eluted with 400 microliters of eluent (provided in the kit) for three times, aspirating as much liquid as possible each time; 3) Added 300 microliters of diluent (provided in the kit) to each well, and equilibrated for 1 hour at room temperature; 4) Eluted the well plate as in the above step 2) to be ready for the addition of sample; ) Added 100 microliters of sample or standard to each well containing the added diluent, and sealed and incubated the well plate for 2 hours at room temperature; 6) Eluted the well plate as in the above step 2); 7) Added 100 microliters of detector antibody (provided in the kit) to each well, and sealed and incubated the well plate for 2 hours at room temperature. 8) Eluted the well plate as in the above step 2); 9) Added 100 microliters of Streptavidin-HRP working solution (provided in the kit) to each well, and sealed and incubated the well plate in dark for 20 minutes at room temperature. 10) Eluted the well plate as in the above step 2); 11) Added 100 microliters of reaction substrate solution (provided in the kit) to each well, and incubated at room temperature for 20 minutes, protected from light: 12) Added 50 microliters of stop solution (provided in the kit) to each well, and tapped the well plate to ensure that the liquid is evenly mixed; 13) Detected the optical density value of each well at […]. The values could be corrected by deducting the values at 540 nm or 570 nm.

[2] = tested on: mouse spleen Naïve CD4+ T cells; assay: Compound cytotoxicity detection, lactate dehydrogenase (LDH) release; assay type: cell-based; conditions: 4 hours incubation; FIG. 9
Method: 1) Separated fresh spleens from adult C57BL/6 female mice (8-12 weeks old), and ground and filtered through a […] nylon cell strainer to obtain a single cell suspension in pre-cooled PBS; 2) Seeded primary CD4+ T cells in 96-well plate with a density of 1×10^5/90 μL. The medium was 1640 medium (serum-free); 3) Added the serially diluted compounds formulated in a volume of 10 μL to designated wells; 4) Incubated the cells for 4 hours at 37 degrees Celsius and 5% CO2; 5) Detected lactate dehydrogenase (LDH) release according to CytoTox-one Homogeneous Membrane Integrity Assay Kit instructions.

C=C[C@@]1(C)CC(=O)C2(O)[C@@]3(C)C(O)CCC(C)(C)C3[C@H](OC(=O)CCN(C)C)[C@H](OC(C)=O)[C@@]2(C)O1.Cl (stereo partly drawn) [6-[3-(dimethylamino)propionyl]forskolin hydrochloride]
IL-17A level, % of the positive control ([1]; 0.5 μM alone): 88%
reduction in IL-17A levels ([1]; 0.5 μM used alone): 12%
IL-17A level, % of the positive control ([1]; 1 μM alone): 19%
IL-17A, % of the basic level ([1]; 1 μM compound alone, FIG. 10): 18%
inhibition at 10 µM ([1]; Mus musculus, CD4+ T, 168 h, 10 μM, 7 days cytokine induction, FIG. 8, read-out: inhibition of the positive control IL-17A level): ~97%
inhibition at 1 µM ([1]; Mus musculus, CD4+ T, 1 μM alone, FIG. 10, read-out: reduction in IL-17A levels (inhibitory effect)): 81%
IL-17A treatment value, A ([1]; Table 7, relative to control, 0.5 μM): 88%
IL17-A treatment value, A ([1]; Table 8, relative to control, 0.5 μM): 88%
toxicity to CD4+ T cells (lactate dehydrogenase release) [2]: not significantly toxic
